The structures appear in SMILES notation.

The first assay deals with T1, GST-VEGFR2 (Homo sapiens, UniProt P35968).
T1 construct: GST-VEGFR2, baculovirus expressed recombinant constructs of the intracellular domains of human TIE2 tagged by GST; made in house
T1 sequence (P35968 786-1356 limits assumed): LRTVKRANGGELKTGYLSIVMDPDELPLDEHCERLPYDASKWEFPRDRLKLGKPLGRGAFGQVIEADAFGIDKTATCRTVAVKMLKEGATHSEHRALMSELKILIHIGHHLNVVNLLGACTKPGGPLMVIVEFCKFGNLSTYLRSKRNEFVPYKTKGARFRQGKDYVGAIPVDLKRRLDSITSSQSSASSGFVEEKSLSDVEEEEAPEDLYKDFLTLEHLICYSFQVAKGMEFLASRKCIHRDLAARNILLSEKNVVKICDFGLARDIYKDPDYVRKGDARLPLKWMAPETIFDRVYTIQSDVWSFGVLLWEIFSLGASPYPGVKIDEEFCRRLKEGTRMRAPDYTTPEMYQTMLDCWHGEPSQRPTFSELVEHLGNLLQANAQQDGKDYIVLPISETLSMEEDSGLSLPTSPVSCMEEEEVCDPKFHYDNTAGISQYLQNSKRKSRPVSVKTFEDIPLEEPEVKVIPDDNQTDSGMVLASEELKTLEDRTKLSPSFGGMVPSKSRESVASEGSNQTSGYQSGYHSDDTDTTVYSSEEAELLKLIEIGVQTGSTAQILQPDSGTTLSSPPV
Put plainly: VEGF-R2 enzyme assay (VEGF-E), LANCE method. Format: biochemical. To be noted: 75 μM ATP. The procedure:
VEGF-R2 Enzyme Assay (VEGF-E)
The VEGF enzyme assay used the LANCE method (Wallac) and GST-VEGFR2, baculovirus expressed recombinant constructs of the intracellular domains of human […] tagged by GST. […] The reaction was stopped by the addition of EDTA (final concentration 50 mM). Streptavidin linked-APC (allophycocyanin, Molecular Probe) and Europium-labeled anti-phosphorylated tyrosine antibody (Wallac) were then added at the final concentration of 15 nM and 1 nM, respectively. The APC signal was measured using an ARVO multilabel counter (Wallac Berthold, Japan). The percent inhibition of activity was calculated relative to blank control wells. The concentration of test compound that inhibits 50% of activity (IC50) was interpolated using nonlinear regression (Levernberg-Marquardt) and the equation, y=Vmax (1−x/(K+x))+Y2, where “K” was equal to the IC50. The IC50 values were converted to pIC50 values, i.e., −log IC50 in Molar concentration.
`COC(=O)Nc1nc2cc(Oc3cccc(NC(=O)Nc4ccc(Oc5ccccc5)cc4)c3)ccc2[nH]1` [Example 125, Methyl N-(5-(3-((4-phenoxyphenyl)aminocarbonylamino)phenoxy)-1H-benzimidazol-2-yl)carbamate] came in with an IC50 of less than 100 nM.

Consider `CCCCNC(=O)Nc1nc2ccc(Oc3ccc(NC(=O)Nc4cc(C(F)(F)F)ccc4F)cc3)cc2s1` [Example 137, 1-(6-(4-((2-Fluoro-5-(trifluoromethyl)phenyl)aminocarbonylamino)phenoxy)benzthiazol-2-yl)-3-(butyl)urea], for which the IC50 was less than 100 nM.

In turn, `COC(=O)Nc1nc2cc(Oc3cccc(NC(=O)Nc4ccccc4OC(F)(F)F)c3)ccc2[nH]1` [Example 116, Methyl N-(5-(3-((2-(trifluoromethoxy)phenyl)aminocarbonylamino)phenoxy)-1H-benzimidazol-2-yl)carbamate] showed an IC50 of less than 100 nM.

`COC(=O)Nc1nc2ccc(C(=O)c3ccc(NC(=O)Nc4cc(C(F)(F)F)ccc4F)cc3)cc2[nH]1` [Example 78, Methyl N-(5-(4-((2-fluoro-5-(trifluoromethyl)phenyl)aminocarbonylamino)phenylcarbonyl)-1H-benzimidazol-2-yl)carbamate]: the IC50 is less than 100 nM.

`COC(=O)Nc1nc2cc(Oc3ccc(NC(=O)Nc4ccc5c(c4)CCC5)cc3)ccc2[nH]1` [Example 127, Methyl N-(5-(4-((5-indanyl)aminocarbonylamino)phenoxy)-1H-benzimidazol-2-yl)carbamate] gave an IC50 of less than 100 nM.

In turn, `COC(=O)Nc1nc2cc(Oc3cccc(NC(=O)Nc4ccc(Cl)cc4)c3)ccc2[nH]1` [Example 61, Methyl N-(5-(3-((4-chlorophenyl)aminocarbonylamino)phenoxy)-1H-benzimidazol-2-yl)carbamate] gave an IC50 of less than 100 nM.

Compound `COC(=O)Nc1nc2cc(Oc3ccc(NC(=O)Nc4ccc(OC)cc4)cc3)ccc2[nH]1` [Example 62, Methyl N-(5-(4-((4-methoxyphenyl)aminocarbonylamino)phenoxy)-1H-benzimidazol-2-yl)carbamate] gave an IC50 of less than 100 nM.

`COC(=O)Nc1nc2cc(Sc3ccc(NC(=O)Nc4cc(C(C)(C)C)on4)cc3)ccc2[nH]1` [Example 130, Methyl N-(5-(4-((5-tert-butylisoxazole-3-yl)aminocarbonylamino)phenylthio)-1H-benzimidazol-2-yl)carbamate] had an IC50 of less than 100 nM.

In turn, `COC(=O)Nc1nc2cc(Oc3ccc(NC(=O)Nc4ccc(F)cc4)cc3)ccc2[nH]1` [Example 63, Methyl N-(5-(4-((4-fluorophenyl)aminocarbonylamino)phenoxy)-1H-benzimidazol-2-yl)carbamate] displayed an IC50 of less than 100 nM.

The compound `CCCCNC(=O)Nc1nc2ccc(Oc3ccc(NC(=O)Nc4ccc(Cl)c(C(F)(F)F)c4)cc3)cc2s1` [Example 136, 1-(6-(4-((4-Chloro-3-(trifluoromethyl)phenyl)aminocarbonylamino)phenoxy)benzthiazol-2-yl)-3-(butyl)urea] showed an IC50 of less than 100 nM.

For `COC(=O)Nc1nc2cc(Oc3cccc(NC(=O)Nc4ccc(Cl)c(C(F)(F)F)c4)c3)ccc2[nH]1` [Example 119, Methyl N-(5-(3-((4chloro-3-(trifluoromethyl)phenyl)aminocarbonylamino)phenoxy)-1H-benzimidazol-2-yl)carbamate], the IC50 was less than 100 nM.

`COC(=O)Nc1nc2cc(Oc3cccc(NC(=O)Nc4cccc(Oc5ccccc5)c4)c3)ccc2[nH]1` [Example 60, Methyl N-(5-(3-((3-(phenoxy)phenyl)aminocarbonylamino)phenoxy)-1H-benzimidazol-2-yl)carbamate] returned a concentration for half-maximal inhibition (IC50) of less than 100 nM.

`COC(=O)Nc1nc2cc(Oc3cccc(NC(=O)Nc4ccc(SC(F)(F)F)cc4)c3)ccc2[nH]1` [Example 117, Methyl N-(5-(3-((4-(trifluoromethylthio)phenyl)aminocarbonylamino)phenoxy)-1H-benzimidazol-2-yl)carbamate] showed a concentration for half-maximal inhibition (IC50) of less than 100 nM.

Turning to `O=C(Nc1ccc(Cl)cc1)Nc1nc2cc(Oc3ccc(NC(=O)Nc4cc(C(F)(F)F)ccc4F)cc3)ccc2[nH]1` [Example 134, 1-(5-(4-((2-Fluoro-5-(trifluoromethyl)phenyl)aminocarbonylamino)phenoxy)-1H-benzimidazol-2-yl)-3-(4-chlorophenyl)urea], the half-inhibitory concentration (IC50) was less than 100 nM.

`COC(=O)Nc1nc2cc(Oc3cccc(NC(=O)Nc4cccc(SC(F)(F)F)c4)c3)ccc2[nH]1` [Example 58]: the IC50 was less than 100 nM.

`COCCOCC(=O)Nc1nc2cc(Oc3ccc(NC(=O)Nc4nnc(N5CCOCC5)[nH]4)cc3)ccc2[nH]1` [Example 163, N-(5-(4-((5-Morpholino-1,3,4-triazol-2-yl)aminocarbonylamino)phenoxy)-1H-benzimidazol-2-yl)(2-(methoxy)ethoxy)acetamide] yielded an IC50 of 1000 to 10000 nM.

For `COC(=O)Nc1nc2cc(Oc3ccc(NC(=O)Nc4cccc(Oc5ccccc5)c4)cc3)ccc2[nH]1` [Example 123, Methyl N-(5-(4-((3-phenoxyphenyl)aminocarbonylamino)phenoxy)-1H-benzimidazol-2-yl)carbamate], the IC50 fell in the range of 100 to 1000 nM.

Compound `COC(=O)Nc1nc2cc(Oc3ccc(NC(=O)Nc4cc(C(C)(C)C)on4)cc3)ccc2[nH]1` [Example 128, Methyl N-(5-(4-((5-tert-butylisoxazole-3-yl)aminocarbonylamino)phenoxy)-1H-benzimidazol-2-yl)carbamate] returned an IC50 of less than 100 nM.

Turning to `COC(=O)Nc1nc2cc(Oc3cccc(NC(=O)Nc4cccc(Br)c4)c3)ccc2[nH]1` [Example 59, Methyl N-(5-(3-((3-bromophenyl)aminocarbonylamino)phenoxy)-1H-benzimidazol-2-yl)carbamate], the IC50 was less than 100 nM.

Take `COC(=O)Nc1nc2cc(Oc3cccc(NC(=O)Nc4cccc(I)c4)c3)ccc2[nH]1` [Example 120, Methyl N-(5-(3-((3-iodophenyl)aminocarbonylamino)phenoxy)-1H-benzimidazol-2-yl)carbamate]: the half-maximal inhibitory concentration (IC50) was less than 100 nM.

On to `COC(=O)Nc1nc2cc(Oc3cccc(NC(=O)Nc4ccccc4C(F)(F)F)c3)ccc2[nH]1` [Example 118, Methyl N-(5-(3-((2-(trifluoromethyl)phenyl)aminocarbonylamino)phenoxy)-1H-benzimidazol-2-yl)carbamate], for which the IC50 is 100 to 1000 nM.

Turning to `COC(=O)Nc1nc2cc(Oc3cccc(NC(=O)Nc4cc(C(C)(C)C)on4)c3)ccc2[nH]1` [Example 129, Methyl N-(5-(3-((5-tert-butylisoxazole-3-yl)aminocarbonylamino)phenoxy)-1H-benzimidazol-2-yl)carbamate], the IC50 was less than 100 nM.

As to `COC(=O)Nc1nc2cc(Oc3cccc(NC(=O)Nc4ccccc4Oc4ccccc4)c3)ccc2[nH]1` [Example 124, Methyl N-(5-(3-((2-phenoxyphenyl)aminocarbonylamino)phenoxy)-1H-benzimidazol-2-yl)carbamate], the IC50 is less than 100 nM.

Take `O=C(Nc1ccc(Oc2ccc3[nH]c(NC(=O)Nc4cc(C(F)(F)F)ccc4F)nc3c2)cc1)Nc1cc(C(F)(F)F)ccc1F` [Example 133, 1-(5-(4-((2-Fluoro-5-(trifluoromethyl)phenyl)aminocarbonylamino)phenoxy)-1H-benzimidazol-2-yl)-3-(2-fluoro-5-(trifluoromethyl)phenyl)urea]: the IC50 was less than 100 nM.

Turning to `COC(=O)Nc1nc2cc(Oc3cccc(NC(=O)Nc4cc(Cl)ccc4Cl)c3)ccc2[nH]1` [Example 121, Methyl N-(5-(3-((2,5-dichlorophenyl)aminocarbonylamino)phenoxy)-1H-benzimidazol-2-yl)carbamate], the IC50 lay in the range of 100 to 1000 nM.

The next assay deals with T2, GST-TIE2 (intracellular domains of human TIE2) (Homo sapiens, UniProt Q02763).
T2 construct: made in house
T2 sequence (Q02763 762-1104): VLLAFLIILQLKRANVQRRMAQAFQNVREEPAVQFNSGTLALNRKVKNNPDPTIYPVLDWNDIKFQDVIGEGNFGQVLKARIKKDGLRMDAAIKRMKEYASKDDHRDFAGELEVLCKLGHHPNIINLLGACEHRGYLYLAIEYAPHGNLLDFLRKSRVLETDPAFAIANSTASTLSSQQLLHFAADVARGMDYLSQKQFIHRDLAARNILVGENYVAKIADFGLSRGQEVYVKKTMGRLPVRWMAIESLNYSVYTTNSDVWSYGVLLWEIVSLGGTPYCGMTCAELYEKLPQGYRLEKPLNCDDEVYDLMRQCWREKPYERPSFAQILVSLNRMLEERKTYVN
Put plainly: TIE-2 enzyme assay (TIE2-E), LANCE method. Format: biochemical. To be noted: 80 uM ATP. The procedure:
TIE-2Enzyme Assay (TIE2-E)
The TIE-2 enzyme assay used the LANCE method (Wallac) and GST-TIE2, baculovirus expressed recombinant constructs of the intracellular domains of human TIE2 (amino acids 762–1104, GenBank Accession # L06139) tagged by GST). […] This peptide phosphorylation was detected using the following procedure: for enzyme preactivation, GST-TIE2 was incubated for 30 mins at room temperature with 2 mM ATP, 5 mM MgCl2 and 12.5 mM DTT in 22.5 mM HEPES buffer (pH7.4). Preactivated GST-TIE2 was incubated for 30 mins at room temperature in 96 well plates with 1 μM D1-15 peptide, 80 uM ATP, 10 mM MgCl2, 0.1 mg/ml BSA and the test compound (diluted from a 10 mM stock in DMSO, final DMSO concentration was 2.4%) in 1 mM HEPES (pH7.4). The reaction was stopped by the addition of EDTA (final concentration 45 mM). Streptavidin linked-APC (allophycocyanin, Molecular Probe) and Europium-labeled anti-phosphorylated tyrosine antibody (Wallac) were then added at the final concentration of 17 μg/well and 2.1 μg/well, respectively. The APC signal was measured using an ARVO multilabel counter. (Wallac Berthold Japan). The percent inhibition of activity was calculated relative to blank control wells. The concentration of test compound that inhibits 50% of activity (IC50) was interpolated using nonlinear regression (Levernberg-Marquardt) and the equation, y=Vmax (1−x/(K+x))+Y2, where “K” was equal to the IC50. The IC50 values were converted to pIC50 values, i.e., −log IC50 in Molar concentration.
In turn, `COC(=O)Nc1nc2cc(Oc3ccc(NC(=O)Nc4ccc(OC)cc4)cc3)ccc2[nH]1` [Example 62, Methyl N-(5-(4-((4-methoxyphenyl)aminocarbonylamino)phenoxy)-1H-benzimidazol-2-yl)carbamate] showed an IC50 of 1000 to 10000 nM.

Consider `COC(=O)Nc1nc2cc(Oc3ccc(NC(=O)Nc4ccc(F)cc4)cc3)ccc2[nH]1` [Example 63, Methyl N-(5-(4-((4-fluorophenyl)aminocarbonylamino)phenoxy)-1H-benzimidazol-2-yl)carbamate], for which the TIE2-E result is on record as “−”.

Regarding `Nc1nc2ccc(Oc3ccc(NC(=O)Nc4cc(C(F)(F)F)ccc4F)nc3)cc2n1Cc1ccccc1` [Example 113, 6-(6-((2-Fluoro-5-(trifluoromethyl)phenyl)aminocarbonylamino)-3-pyridyloxy)-1-benzyl-1H-benzimidazol-2-ylamine], the IC50 is less than 100 nM.

The values are drawn from patent US7238813B2, “Chemical compounds” (Smithkline Beecham Corporation, priority 2000, dated 2007).
